Results as given in patent US20260232644A1, “Compositions Comprising an Inhibitor of Galectin-3” (University of Liverpool, priority 2023, published 2026).
Structures can show the parent of a compound that is named as a salt.

What was measured:
[1] = system: human breast cancer cells; conditions: by suppressing activation of NFKB induced by TNFα; cited from earlier work
human colon cancer cells = conditions: cited from earlier work
Galectin-3 = target: T1, Galectin-3 (Homo sapiens, UniProt P17931); assay: Galectin-3 binding to asialofetuin (ASF) ELISA; conditions: for Inhibition of Galectin-3 binding to its ligand asialofetuin (ASF): Galectin-3 5 μg/ml, ASF 20 μg/ml, different concentrations of compound, ELISA; for IC50: read-out: IC50, inhibition of Galectin-3 binding to its ligand
T1 construct: made in house; host or cells: E. coli
Method: (§1) Effect of the inhibitors on galectin binding to its ligand asialo fetuin (ASF) was measured by galectin ELISA. Nanty-six well plates were coated overnight with 20 μg/ml ASF in coating buffer (15 mM Na2CO3 17 mM NaHCO3 pH 9.6.). The wells were washed twice with PBS and incubated with blocking buffer (1% BSA in PBS) for 1 hr. The supernatants were removed and replaced with 5 μg/ml recombinant human galectin without or with different concentrations of the compound inhibitors or lactose in blocking buffer for 1 hr at room temperature. The wells were washed and incubated with 1 μg/ml anti-galectin antibody for 2 hr. Following addition of HRP-conjugated secondary antibody for 1 hr, FAST OPD development solution was added for 15-20 minutes. The reaction was terminated by addition of 4M sulphuric acid. The plates were read at 492 nm (reference wavelength 595 nm) by a microplate reader.

full-length galectin-3 = target: T2, full-length galectin-3 (Homo sapiens, UniProt P17931); assay: Tryptophan Fluorescence Spectroscopy (TFS) binding affinity, full-length Galectin-3
T2 construct: made in house; host or cells: E. coli
Method: The binding affinity of the inhibitors to galectin-3 was determined by Intrinsic Tryptophan Fluorescence Spectroscopy (TFS) exactly as we described recently [Sindrewicz, P., et al., Intrinsic tryptophan fluorescence spectroscopy reliably determines galectin-ligand interactions. Sci Rep, 2019. 9(1): p. 11851]. The Galectin-3 concentration used was 10 μM and the inhibitor titration concentrations were from 0 to 224 μM. DMSO/control buffer (PBS with 2 mM EDTA) titrations were performed and used for background subtraction.

[2] = system: human colon cancer SW620 cells; assay: Galectin-3-mediated SW620 cell adhesion to HUVECs; type: cell-based; conditions: Galectin-3 2 μg/ml, various concentrations
Method: HUVEC cells at 1×10^5 cells/ml in EGM medium were seeded into 24 well plates pre-inserted with 13 mm glass coverslip. The cells were incubated at 37° C. at 5% CO2 for 24 hr for monolayer formation. AGA19+ or SW620 cell suspension (5×10^5 cells/ml in DMEM) was introduced with 5 μl/ml fluorescent cell labelling solution DiL for 30 min at 37° C. The fluorescent labelled cells were washed twice with PBS and resuspended into 1×10^5 cells/ml in DMEM. The cancer cell suspension was then introduced with galectin-3 (2 μg/ml) and various concentrations of the compound inhibitors at 37° C. for 1 hr. The wells were carefully washed twice with PBS to remove the non-adhesion cells before the cells in the wells were fixed with 2% paraformaldehyde for 10 min. The glass coverslip was carefully removed from the plate, placed on a glass slide. After addition of fluorescence mounting medium containing DAPI, fluorescence labelled cells were quantified under a fluorescence microscope.

[3] = system: human colon cancer SW620 cells; assay: SW620 cell invasion through HUVECs (transwell); type: cell-based; conditions: Galectin-3 1 ug/ml, transwells, several concentrations
Method: HUVECs were plated at a density of 1.5×10^4 cells in 8 μm pore transwells in 24-well plate and cultured for three days to allow formation of tight monolayer. The integrity of HUVEC monolayer was confirmed by measuring TEER and only monolayers with TEER reading>800 Ω/cm^2 were used for the invasion assay. AGA19+ or SW620 cell suspension (5×10^5 cells/ml in DMEM) was introduced with 5 μl/ml fluorescent cell labelling solution DiL for 30 min at 37° C. The fluorescence labelled cells were washed twice with PBS and resuspended into 1×10^5 cells/ml in DMEM. […] The cells at the upper side of the trans-well inserts were gently removed with cotton swabs. The cells migrated to the bottom side of the transwells were fixed with 2% paraformaldehyde for 10 min. The trans-well membrane was removed and placed on glass slides. After addition of fluorescence mounting medium containing DAPI, the fluorescence labelled cells on the membrane were quantified under a fluorescence microscope.

[4] = system: human umbilical vein endothelial cells (HUVECs); assay: Vascular cell tubule formation (angiogenesis); type: cell-based; conditions: Galectin-3 2 μg/ml, various concentrations
Method: Matrigel matrix (50 μl) was added to 96-well plates for 60 min at 37° C. to allow gel formation. HUVEC cells (1×10^5 cells/ml in 1:1 EGM/EBM2 media) was introduced to the plates without or with galectin-3 (2 μg/ml) or different concentrations of compound inhibitors for 24 hr at 37° C. Endothelial cell tube formation was examined with Laser Microscope. The total number of branching points and the sum of the lengths of tubes were measured.

[5] = system: human colon cancer SW620 cells; assay: LDH release cytotoxicity assay, SW620; type: cell-based; conditions: various concentrations
Method: (§6) SW620 cells (5×10^4 cells/ml) were seeded into 96-well plate in DMEM (and incubated at 37° C. 5% CO2 for 24 hr. HUVECs (1.0×10^5 cells/ml) was seeded in EBM medium and incubated for 24-36 hr until they formed a monolayer. Compound inhibitors at different concentrations were then introduced to the cells (10× lysis buffer was included as maximum LDH activity control) for 24 hr. The culture medium was transferred to a new plate and was mixed with equal volume of reaction mixture provided in the kit for 30 min at room temperature before the absorbance was measured at 490 nm (reference 680 nm) by a spectrophotometer.

vascular HUVECs = assay: LDH release cytotoxicity assay, HUVECs; type: cell-based, human; conditions: various concentrations
Method: as §6

[6] = system: THP-1 differentiated macrophages; assay: Galectin-3-induced TNFα secretion from macrophages (ELISA); type: cell-based; conditions: Galectin-3 10 μg/ml, various concentrations
Method: (§2) Effect of the compound inhibitors on secretion of pro-inflammatory cytokines from macrophages were assessed in THP-1 monocyte differentiated macrophages. THP-1 cells were induced to differentiation into macrophages by incubation with 10 ng/ml PMA for 48 h at 37° C. The culture medium was then replaced with fresh medium without or with 10 μg/ml galectin-3 and various concentrations of the compound inhibitors for 24 h at 37° C. The culture medium was collected and the concentrations of TNFα and IL-1β in the culture medium were determined by TNFα and IL-1β ELISA.

[7] = system: THP-1 differentiated macrophages; assay: Galectin-3-induced IL-1β secretion from macrophages (ELISA); type: cell-based; conditions: Galectin-3 10 μg/ml, various concentrations
Method: as §2

[8] = system: human lung cancer H1975 cells; assay: Lung cancer cell adhesion to basement matrix; type: cell-based; conditions: for IC50: Homo sapiens, NCI-H1975; for Inhibition of H1975 cell adhesion to matrix: different concentrations
Method: (§3) Nanty-six well plates were coated with 50 μl Matrigel (1:30 diluted in PBS) at 37° C. for 1 hour.
(§4) Cancer cells, pre-labelled with fluorescent die DiI at 37° C. for 20 minutes, were washed twice with PBS and resuspended into 3×10^4 cells/ml in serum-free medium. The matrix-coated 96-well plates were washed twice with PBS before introduction of 100μ cell suspension with different concentrations of the inhibitors or PBS/DMSO (control) for 1 hour at 37° C. The plates were washed twice with PBS before three randomly selected Field of Views (FOVs) were recorded by fluorescence microscope and number of adhesion cells were quantified by Image J.

[9] = system: triple-negative breast cancer MDA-MB-231 cells; assay: Triple-negative breast cancer cell adhesion to basement matrix; type: cell-based, human; conditions: for Effect on adhesion of galectin-3 knockout (Gal3KO) MDA-MB-231 cells: CRISPR/Cas9 Gal3KO cells; for Effect on adhesion of non-transfected (con) MDA-MB-231 cells: control cells; for Inhibition of MDA-MB-231 cell adhesion to matrix: different concentrations
Method: as §3, §4
(§5) MDAMB-231 or PANC-1 cells were seeded into 6-well plate (2×10^5 cells) and cultured at 37° C. for 24 hour. Galectin-3 CRISPR Cas9 Knockout plasmid (2 μg) and galectin-3 HDR plasmid (2 μg) was mixed with Plasmid Transfection Medium (21 μl) for 5 minutes before addition to a mixture of lipofectamine STEM Transfection Reagent (STEM00001) (1 μl) and Plasmid Transfection Medium (25 μl) for 10 minutes at room temperature. The cells in the 6-well plates were washed and introduced with the Plasmid DNA/Lipofectamine STEM Transfection Reagent complex at 37° C. for 24 hour. The culture medium was replaced with fresh antibiotics-free medium for further 24 hour before introduction of 10 μg/mL puromycin-containing medium every three days. Successful co-transfection of the CRISPR/Cas9 KO Plasmid and HDR Plasmid was confirmed by expression of red fluorescence protein of the cells. Galectin-3 knockout in the cells was further confirmed by immunoblotting.

[10] = system: human pancreatic cancer PANC1 cells; assay: Pancreatic cancer cell adhesion to basement matrix; type: cell-based; conditions: for Effect on adhesion of galectin-3 knockout (Gal3KO) PANC1 cells: CRISPR/Cas9 Gal3KO cells; for Effect on adhesion of non-transfected (con) PANC1 cells: control cells; for Inhibition of PANC1 cell adhesion to matrix: different concentrations
Method: as §3, §4, §5

Galectin-8 = target: T3, Galectin-8 (Homo sapiens, UniProt O00214); assay: Galectin-8 binding to asialofetuin ELISA; conditions: Gal-8 5 μg/ml, ASF 20 μg/ml
T3 construct: purchased R&D Systems (Abingdon, UK)
T3 sequence (O00214 1-317): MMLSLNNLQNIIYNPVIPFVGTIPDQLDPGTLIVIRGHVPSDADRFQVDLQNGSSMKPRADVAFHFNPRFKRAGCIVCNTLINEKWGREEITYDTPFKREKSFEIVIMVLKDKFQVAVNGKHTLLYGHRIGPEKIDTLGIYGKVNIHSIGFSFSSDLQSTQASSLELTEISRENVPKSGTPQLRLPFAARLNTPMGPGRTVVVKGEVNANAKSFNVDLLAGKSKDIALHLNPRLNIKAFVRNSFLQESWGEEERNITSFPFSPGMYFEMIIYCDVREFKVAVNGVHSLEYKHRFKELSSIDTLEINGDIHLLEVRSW
Method: as §1

T1 sequence (P17931 whole entry): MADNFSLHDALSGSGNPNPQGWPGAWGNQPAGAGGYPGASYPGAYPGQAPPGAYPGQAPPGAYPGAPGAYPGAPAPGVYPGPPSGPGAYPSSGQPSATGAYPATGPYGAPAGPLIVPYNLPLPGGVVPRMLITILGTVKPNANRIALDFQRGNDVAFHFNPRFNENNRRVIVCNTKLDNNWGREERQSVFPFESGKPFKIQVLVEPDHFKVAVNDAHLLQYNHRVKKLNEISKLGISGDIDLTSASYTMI
T2 sequence (P17931 whole entry): as above

Row | Structure (SMILES) | Inhibition of Galectin-3 binding to its ligand asialofetuin (ASF) (Galectin-3) | IC50 (Galectin-3) [µM] | Kd (full-length galectin-3) [µM] | Inhibition of SW620 cell adhesion to HUVECs [2] | Inhibition of galectin-3-mediated invasion of SW620 cells through HUVECs [3] | Inhibition of tubule numbers [4] | Inhibition of vascular tubule length [4] | Cytotoxicity to SW620 cells (LDH release) [5] | Cytotoxicity to HUVEC cells (LDH release) (vascular HUVECs) | Inhibition of galectin-3-induced TNFα secretion [6] | Inhibition of galectin-3-induced IL-1β secretion [7] | IC50 [8] [µM] | Inhibition of H1975 cell adhesion to matrix [8] | Effect on adhesion of galectin-3 knockout (Gal3KO) MDA-MB-231 cells [9] | Effect on adhesion of non-transfected (con) MDA-MB-231 cells [9] | Inhibition of MDA-MB-231 cell adhesion to matrix [9] | Effect on adhesion of galectin-3 knockout (Gal3KO) PANC1 cells [10] | Effect on adhesion of non-transfected (con) PANC1 cells [10] | Inhibition of PANC1 cell adhesion to matrix [10] | other results
1 | CO/N=C1\CN(c2nc3c(cc2F)c(=O)c(C(=O)O)cn3C2CC2)CC1CN (stereo not drawn) [Formula W, Gemifloxacin] | – | – | – | – | – | – | – | – | – | – | – | – | – | – | – | – | – | – | – | Effect on migration, invasion and metastasis in human breast cancer cells [1]: inhibit migration, invasion and metastasis; Effect on migration and invasion of human colon cancer cells (human colon cancer cells): inhibit migration and invasion
2 | Cc1c(O)cccc1C(=O)N[C@@H](CSc1ccccc1)[C@H](O)CN1C[C@H]2CCCC[C@H]2C[C@H]1C(=O)NC(C)(C)C [Formula Y, Nelfinavir mesylate] | inhibit galectin-3 binding to ASF in a dose-dependent manner | ≤ 10 | ~90 | dose-dependent inhibition | dose-dependent inhibition | dose-dependent inhibition | dose-dependent inhibition | little or low toxicity | little or low toxicity | dose-dependent inhibition | dose-dependent inhibition | ~5 | dose-dependent inhibition | lost their inhibitory effect | significant reduction | dose-dependent inhibition | lost their inhibitory effect | significant reduction | dose-dependent inhibition | IC50 ([9]; Homo sapiens, MDA-MB-231): ~10 µM
3 | CN(C)CCOc1ccc(/C(=C(/CCCl)c2ccccc2)c2ccccc2)cc1 [Formula Z, Toremifene citrate] | inhibit galectin-3 binding to ASF in a dose-dependent manner | ≤ 10 | ~35 | dose-dependent inhibition | dose-dependent inhibition | dose-dependent inhibition | dose-dependent inhibition | low cytotoxicity | low cytotoxicity | dose-dependent inhibition | dose-dependent inhibition | 5 to 10 | dose-dependent inhibition | lost their inhibitory effect | significant reduction | dose-dependent inhibition | lost their inhibitory effect | significant reduction | dose-dependent inhibition | –
4 | OC[C@H]1O[C@@H](O[C@H]2[C@H](O)[C@@H](O)C(O)O[C@@H]2CO)[C@H](O)[C@@H](O)[C@H]1O (stereo partly drawn) [lactose] | – | – | – | – | – | – | – | – | – | – | – | – | – | – | – | – | – | – | – | Effect on Galectin-8 binding to asialofetuin (Galectin-8): dose-dependently inhibits
